Results from US11667637B2, “Fused imidazo-piperidine JAK inhibitors” (THERAVANCE BIOPHARMA R&D IP, LLC, priority 2017, dated 2023).

Experiments:
[1] = test system: IL-6 stimulated STAT3 phosphorylation in CD3+ T cells; test: Inhibition of IL-6 stimulated pSTAT3 in CD3+ T cells; assay type: cell-based, human; conditions: statement in words
Source text: Assay 10: Cellular JAK Potency Assay: Inhibition of IL-6 Stimulated pSTAT3 in CD3+ T Cells
A protocol analogous to that of Assay 9 was used to determine the potency of the test compound for inhibition of interleukin-6 (IL-6) stimulated STAT3 phosphorylation. An Alexa Fluor 647 conjugated anti-pSTAT3 antibody (pY705, Clone 4/P, BD Biosciences) was used to detect STAT3 phosphorylation.

[2] = test system: IL-5 mediated survival of human eosinophils; test: IL-5 mediated eosinophil survival assay; assay type: cell-based; conditions: statement in words
Protocol: Assay 6: IL-5 Mediated Eosinophil Survival Assay
The potency of the test compound for IL-5 mediated eosinophil survival was measured in human eosinophils isolated from human whole blood (AllCells). Because IL-5 signals through JAK, this assay provides a measure of JAK cellular potency.
Human eosinophils were isolated from fresh human whole blood (AllCells) of healthy donors. Blood was mixed with 4.5% Dextran (Sigma-Aldrich) in a 0.9% sodium chloride solution (Sigma-Aldrich). Red blood cells were left to sediment for 35 minutes. The leukocyte rich upper layer was removed and layered over Ficoll-Paque (GE Healthcare) and centrifuged at 600 g for 30 minutes. The plasma and mononuclear cell layers were removed before the granulocyte layer was lysed with water to remove any contaminating red blood cells. […] Purity was analyzed using a LSRII flow cytometer (BD Biosciences). […]
After cytokine stimulation, cells were centrifuged at 300 g for 5 min and washed twice with cold DPBS (Life Technologies). To access viability and apoptosis, cells were incubated with Propidium Iodide (Thermo Fisher Scientific) and APC Annexin V (BD Biosciences) and analyzed using a LSRII flow cytometer (BD Biosciences). IC50 values were determined from analysis of the viability curves of percent cell viability vs compound concentration. Data are expressed as pIC50 (negative decadic logarithm IC50) values.

## CCCN1Cc2[nH]c(-c3n[nH]c4cc(-c5cc(F)c(O)cc5CC)ccc34)nc2C[C@H]1C(=O)N1C[C@@H]2C[C@H]1CN2C [Example 1, ((S)-2-(6-(2-ethyl-5-fluoro-4-hydroxyphenyl)-1H-indazol-3-yl)-5-propyl-4,5,6,7-tetrahydro-3H-imidazo[4,5-c]pyridin-6-yl)((1S,4S)-5-methyl-2,5-diazabicyclo-[2.2.1]heptan-2-yl)methanone]
[1]
  inhibition of IL-6 signaling: inhibit IL-6 signaling
[2]
  inhibition of IL-5 mediated human eosinophil survival: potently inhibit

## CCc1cc(O)c(F)cc1-c1ccc2c(-c3nc4c([nH]3)CN(C(C)C)[C@H](C(=O)N3CC[C@H](N(C)C)C3)C4)n[nH]c2c1 [Example 3]
[1]
  inhibition of IL-6 signaling: inhibit IL-6 signaling
